Assay [1] has as its target T1, KRAS-WT and SOS1 proteins (Homo sapiens, UniProt Q07889).
T1 construct: purchased Cisbio 63ADK000CB15PEG
T1 sequence (Q07889 1-1333): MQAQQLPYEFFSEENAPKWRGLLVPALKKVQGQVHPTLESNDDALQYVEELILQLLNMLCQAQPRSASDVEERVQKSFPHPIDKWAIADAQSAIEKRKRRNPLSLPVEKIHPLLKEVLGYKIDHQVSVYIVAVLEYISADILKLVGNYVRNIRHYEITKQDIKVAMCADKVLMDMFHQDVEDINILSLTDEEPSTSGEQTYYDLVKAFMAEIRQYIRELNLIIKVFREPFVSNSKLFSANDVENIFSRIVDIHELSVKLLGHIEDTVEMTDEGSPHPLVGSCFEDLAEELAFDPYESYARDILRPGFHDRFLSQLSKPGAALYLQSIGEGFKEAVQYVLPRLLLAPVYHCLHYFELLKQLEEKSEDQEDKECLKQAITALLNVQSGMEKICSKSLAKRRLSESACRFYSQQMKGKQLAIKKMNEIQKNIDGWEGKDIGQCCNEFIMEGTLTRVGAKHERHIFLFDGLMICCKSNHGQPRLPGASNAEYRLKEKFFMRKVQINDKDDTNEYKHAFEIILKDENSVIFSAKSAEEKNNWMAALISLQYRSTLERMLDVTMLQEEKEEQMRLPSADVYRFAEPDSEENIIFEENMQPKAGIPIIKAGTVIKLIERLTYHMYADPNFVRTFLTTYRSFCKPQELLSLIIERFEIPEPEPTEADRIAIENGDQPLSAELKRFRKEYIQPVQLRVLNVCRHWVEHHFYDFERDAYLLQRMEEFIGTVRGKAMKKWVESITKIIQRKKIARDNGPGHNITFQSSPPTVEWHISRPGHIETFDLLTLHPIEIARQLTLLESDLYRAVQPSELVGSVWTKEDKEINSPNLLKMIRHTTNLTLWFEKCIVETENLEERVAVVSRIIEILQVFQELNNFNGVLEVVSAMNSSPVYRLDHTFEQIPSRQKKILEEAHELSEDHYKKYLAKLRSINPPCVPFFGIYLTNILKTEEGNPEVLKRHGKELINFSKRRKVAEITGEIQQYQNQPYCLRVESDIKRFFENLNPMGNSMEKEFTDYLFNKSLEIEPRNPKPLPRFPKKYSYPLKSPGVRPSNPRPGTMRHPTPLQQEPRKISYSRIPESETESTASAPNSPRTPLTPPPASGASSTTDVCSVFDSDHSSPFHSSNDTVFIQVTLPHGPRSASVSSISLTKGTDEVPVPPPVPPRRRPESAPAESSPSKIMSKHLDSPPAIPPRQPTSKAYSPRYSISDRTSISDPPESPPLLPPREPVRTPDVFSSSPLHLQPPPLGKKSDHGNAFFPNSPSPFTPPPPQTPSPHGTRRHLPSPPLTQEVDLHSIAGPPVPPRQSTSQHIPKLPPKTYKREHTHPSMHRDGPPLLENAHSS
In words: KRAS-WT/SOS1 binding assay (HTRF). The conditions noted are these: Tag1-SOS1 / Tag2-KRAS-WT, 10 μM GTP, read-out: Activity Data in Kras: SOS1 Assay, Wild Type. As to the method: (§1) KRAS-WT (or G12C/G12D/G12V)/SOS1 Binding Assay
(§2) Low IC50 values are indicative of high potency of the SOS1 inhibitor compounds in this assay setting.
(§3) The KRAS-WT (or G12C/G12D/G12V)/SOS1 binding assay is performed using an assay kit (Cisbio, Cat #63ADK000CB15PEG or 63ADK000CB16PEG/63ADK000CB17PEG/63ADK000CB18PEG) according to the procedure recommended by the manufacturer. • 1) Thaw and prepare the working solution of Tag1-SOS1 protein and Tag2-KRAS-WT (or G12C/G12D/G12V) protein with final concentration of 10 μM GTP (Sigma, Cat #V900868). • 2) Thaw and prepare the working solution of anti-Tag1-Tb^3+ anti-Tag2-XL665. • 3) Dispense 2 μL of serially diluted compound, 4 μL of Tag1-SOS1 protein and 4 μL of Tag2-KRAS-WT (or G12C/G12D/G12V) protein with GTP into a ProxiPlate-384 Plus, white 384-shallow well microplate (PerkinElmer, Cat #6008280). • 4) Incubate the plate for 15 minutes at room temperature. • 5) Dispense 10 μL of pre-mixed anti-Tag1-Tb^3+ and anti-Tag2-XL665 into the plate. • 6) Seal the plate and incubate for 2 hours at room temperature. • 7) Remove the plate sealer and read on PHERAstar FS (BMG LABTECH, PHERAstar FS). • 8) Calculate the ratio of the acceptor and donor emission signals for each individual well using the following equation.
(§4) [formula] • 9) IC50 values are fitted and calculated by HTRF signal values and log of compound concentrations to nonlinear regression [Log (inhibitor) vs. Response−Variable Slope (four parameters)] using the GraphPad Prism 8.0.

The target of assay [2] is T2, KRAS G12D and SOS1 proteins (Homo sapiens, UniProt Q07889).
T2 construct: purchased Cisbio 63ADK000CB17PEG
T2 sequence (Q07889 1-1333): T1 sequence (Q07889 1-1333)
In words: KRAS-G12D/SOS1 binding assay (HTRF). The conditions noted are these: Tag1-SOS1 / Tag2-KRAS G12D, 10 μM GTP. As to the method: as §1, §2, §3, §4
(In general: TR-FRET usually uses a lanthanide donor and a delayed reading to cut background.)

pIC50: −log10 of the molar value.

For the compound `C[C@@H](Nc1nc2ccnn2c2cc(=O)n(C3(C(F)F)CC3)cc12)c1cccc(C(F)(F)CO)c1` [Example 68, (R)-5-((1-(3-(1,1-difluoro-2-hydroxyethyl)phenyl)ethyl)amino)-7-(1-(difluoromethyl)cyclopropyl)pyrazolo[1,5-a]pyrido[3,4-e]pyrimidin-8(7H)-one], the pIC50 in assay [1] and in assay [2] was above 7.00 throughout.

As to `COc1cc2c(cc1O[C@H]1CCOC1)c(N[C@H](C)c1cccc(C(F)(F)F)c1)nc1nccn12` [Example 58, 8-methoxy-7-(((S)-tetrahydrofuran-3-yl)oxy)-N—((R)-1-(3-(trifluoromethyl)phenyl)ethyl)imidazo[1,2-a]quinazolin-5-amine], the pIC50 in assay [1] and in assay [2] was above 7.00 throughout.

As for `Cc1nc(N[C@H](C)c2cc(C(C)(C)O)cc(C(F)(F)F)c2)c2cc(-c3ccc(=O)n(C)c3)c3c(cnn3C)c2n1` [Example 26, (R)-5-(4-((1-(3-(2-hydroxypropan-2-yl)-5-(trifluoromethyl)phenyl)ethyl)amino)-2,7-dimethyl-7H-pyrazolo[3,4-h]quinazolin-6-yl)-1-methylpyridin-2(1H)-one], the pIC50 in assay [1] and in assay [2] was below 5.30 throughout.

As for `C[C@@H](Nc1nc2ccnn2c2cc(=O)n(C3CC(F)(F)C3)cc12)c1cccc(C(F)(F)CO)c1` [Example 66, (R)-5-((1-(3-(1,1-difluoro-2-hydroxyethyl)phenyl)ethyl)amino)-7-(3,3-difluorocyclobutyl)pyrazolo[1,5-a]pyrido[3,4-e]pyrimidin-8(7H)-one], the pIC50 in assay [1] and in assay [2] was above 7.00 each time.

Take `Cc1c([C@@H](C)Nc2nc3ccnn3c3cc(=O)n(C4(C)CC4)cc23)cccc1C(F)(F)F` [Example 63, (R)-5-((1-(2-methyl-3-(trifluoromethyl)phenyl)ethyl)amino)-7-(1-methylcyclopropyl)pyrazolo[1,5-a]pyrido[3,4-e]pyrimidin-8(7H)-one]: the pIC50 in assay [1] and in assay [2] was above 7.00 throughout.

Turning to `Cc1nc(N[C@H](C)c2cccc(C(F)(F)CO)c2)c2cc([C@H]3CC[C@H](O)CC3)c3nncn3c2n1` [Example 16, Trans-(R)-4-(4-((1-(3-(1,1-difluoro-2-hydroxyethyl)phenyl)ethyl)amino)-2-methyl-[1,2,4]triazolo[4′,3′:1,6]pyrido[2,3-d]pyrimidin-6-yl)cyclohexan-1-ol], the pIC50 in assay [1] and in assay [2] was above 7.00 in each case.

As to `Cc1nc(N[C@H](C)c2cc(N)cc(C(F)(F)F)c2)c2cc(O[C@H]3CCOC3)c3nncn3c2n1` [Example 18, N-[(1R)-1-[3-amino-5-(trifluoromethyl)phenyl]ethyl]-12-methyl-7-(oxolan-3-yloxy)-2,4,5,11,13-pentaazatricyclo[7.4.0.0^{2,6}]trideca-1(9),3,5,7,10,12-hexaen-10-amine], the pIC50 in assay [1] and in assay [2] was above 7.00 throughout.

Take `Cc1nc(N[C@H](C)c2cccc(C(F)(F)CO)c2)c2cc([C@H]3CC[C@@H](O)CC3)c3nncn3c2n1` [Example 15, Cis-(R)-4-(4-((1-(3-(1,1-difluoro-2-hydroxyethyl)phenyl)ethyl)amino)-2-methyl-[1,2,4]triazolo[4′,3′:1,6]pyrido[2,3-d]pyrimidin-6-yl)cyclohexan-1-ol]: the pIC50 in assay [1] and in assay [2] was above 7.00 throughout.

Regarding `Cc1nc(N[C@H](C)c2cccc(C(F)(F)CO)c2)c2cc(N3CC[C@@H](O)C3)c3c(cnn3C)c2n1` [Example 44, (3R)-1-(4-{[(1R)-1-[3-(1,1-difluoro-2-hydroxyethyl)phenyl]ethyl]amino}-2,7-dimethyl-7H-pyrazolo[3,4-h]quinazolin-6-yl)pyrrolidin-3-ol], the pIC50 in assay [1] and in assay [2] was above 7.00 in each case.

As for `C[C@@H](Nc1nc2ccnn2c2cc(=O)n([C@H]3CCOC3)cc12)c1cccc2c1CCC2(F)F` [Example 71, 5-(((R)-1-(1,1-difluoro-2,3-dihydro-1H-inden-4-yl)ethyl)amino)-7-((S)-tetrahydrofuran-3-yl)pyrazolo[1,5-a]pyrido[3,4-e]pyrimidin-8(7H)-one], the pIC50 in assay [1] and in assay [2] was above 7.00 each time.

On to `COc1cc2c(cc1C1CCN(S(C)(=O)=O)CC1)c(N[C@H](C)c1cccc3c1CCC3(F)F)nc1ccnn12` [Example 53, (R)-N-(1-(1,1-difluoro-2,3-dihydro-1H-inden-4-yl)ethyl)-8-methoxy-7-(1-(methylsulfonyl)piperidin-4-yl)pyrazolo[1,5-a]quinazolin-5-amine], for which the pIC50 in assay [1] and in assay [2] was 6.30 to 7.00 in each case.

Turning to `Cc1nc(N[C@H](C)c2cccc(C(F)(F)CO)c2)c2cc(C3CCNCC3)c3nncn3c2n1` [Example 14, (R)-2,2-difluoro-2-(3-(1-((2-methyl-6-(piperidin-4-yl)-[1,2,4]triazolo[4′,3′:1,6]pyrido[2,3-d]pyrimidin-4-yl)amino)ethyl)phenyl)ethan-1-ol], the pIC50 in assay [1] and in assay [2] was above 7.00 throughout.

On to `Cc1nc(N[C@H](C)c2cccc(C(F)(F)CO)c2)c2cc(O[C@H]3CCOC3)c3nncn3c2n1` [Example 20, 2,2-difluoro-2-(3-((R)-1-((2-methyl-6-(((S)-tetrahydrofuran-3-yl)oxy)-[1,2,4]triazolo[4′,3′:1,6]pyrido[2,3-d]pyrimidin-4-yl)amino)ethyl)phenyl)ethan-1-ol], for which the figures for the pIC50 in assay [1] and in assay [2] were above 7.00 and 6.30 to 7.00, respectively.

Take `Cc1nc(N[C@H](C)c2cccc(C(F)(F)CO)c2)c2cc(-c3ccc(=O)n(C)c3)c3[nH]ncc3c2n1` [Example 27, (R)-5-(4-((1-(3-(1,1-difluoro-2-hydroxyethyl)phenyl)ethyl)amino)-2-methyl-7H-pyrazolo[3,4-h]quinazolin-6-yl)-1-methylpyridin-2(1H)-one]: the pIC50 in assay [1] and in assay [2] was above 7.00 throughout.

In the case of `C[C@@H](Nc1nc2ccnn2c2cc(=O)n(C3(C)CC3)cc12)c1cccc2c1CCC2(F)F` [Example 62, (R)-5-((1-(1,1-difluoro-2,3-dihydro-1H-inden-4-yl)ethyl)amino)-7-(1-methylcyclopropyl)pyrazolo[1,5-a]pyrido[3,4-e]pyrimidin-8(7H)-one], the pIC50 in assay [1] and in assay [2] was above 7.00 each time.

For the compound `C[C@@H](Nc1nc2ccnn2c2cc(=O)n([C@H]3CCOC3)cc12)c1cccc(C(F)(F)CO)c1` [Example 72, 5-(((R)-1-(3-(1,1-difluoro-2-hydroxyethyl)phenyl)ethyl)amino)-7-((S)-tetrahydrofuran-3-yl)pyrazolo[1,5-a]pyrido[3,4-e]pyrimidin-8(7H)-one], the pIC50 in assay [1] and in assay [2] was above 7.00 each time.

These data come from patent publication US20240109891A1, “NOVEL SUBSTITUTED TRICYCLIC AZA-HETEROCYCLES AS SOS1 INHIBITORS” (Viva Star Biosciences (Suzhou) Co., Ltd., priority 2021, published 2024).
